Test results from patent publication US20250134874A1, “PHARMACEUTICAL FORMULATIONS COMPRISING 3-({[(4R)-7-{METHYL[4-(PROPAN-2-YL)PHENYL]AMINO}-3,4-DIHYDRO-2H-1-BENZOPYRAN-4-YL]METHYL}AMINO)PYRIDINE-4-CARBOXYLIC ACID” (TACHYON THERAPEUTICS, INC., priority 2021, published 2025).

System: 301 cancer cell lines from different tumor types (OncoPanel; HD Biosciences)
Assay: 2D cell viability inhibition assay (CellTiter-Glo) in cancer cell line panel
Assay type: cell-based
Conditions: Homo sapiens
Experimental: In a larger screening study, compound 1 was evaluated across a broad cancer cell line panel (OncoPanel; HD Biosciences) composed of 301 cancer cell lines from different tumor types.
2D cell viability inhibition assays were performed in multiwell plates seeded with cells from the panel. After seeding, the plates were cultured overnight in a humidified incubator at 37° C. to promote adherence. Assays were initiated in individual wells by adding either DMSO as a vehicle control, growth media as a blank, or serially diluted compound 1 (10 μM to 0.0005 μM with 1:3 serial dilution). Cultures were incubated for 168 hours after which the number of viable cells in each test well was assessed using the CellTiter-Glo® Luminescent Cell Viability Assay. Luminescence readouts were performed using an EnVision® Multilabel Reader and the compound 1 readouts were normalized to the DMSO control readouts, expressed as a percent of the control. Outliers were flagged out by visual inspection. Percent of control was plotted against the corresponding compound 1 concentration and the absolute IC50 value was determined using four-parameter logistic non-linear regression as the concentration where inhibition was 50% of the control. For maximum inhibition <50%, the absolute IC50 was reported as >10. In addition to EC50 and IC50, AUC was determined and was normalized to the area corresponding to theoretical no-inhibition (the rectangular area defined by the compound dose range and 0 to 100 in y). Emax was recorded as the minimum in y with the compound dose range. For those cell lines where Emax>40, EC50 was manually set to 10 μM. A hierarchical clustering algorithm based on Euclidean distance between the standardized input values and “Ward.D” method as implemented in R hclust function was used to visualize the compound 1 cellular potency data. The sensitive/moderate/resistant calls for each cell line was determined by visually inspecting the resulting clustering dendrogram. All the analyses were done in R Core Team.

[1] = Detroit 562, DETROIT562 cell line
[2] = Granta-519, GRANTA519 cell line
[3] = KARPAS-422, KARPAS422 cell line

## CC(C)c1ccc(N(C)c2ccc3c(c2)OCC[C@H]3CNc2cnccc2C(=O)O)cc1 [Compound 1, 3-({[(4R)-7-{methyl[4-(propan-2-yl)phenyl]amino}-3,4-dihydro-2H-1-benzopyran-4-yl]methyl}amino)pyridine-4-carboxylic acid]
Calu-6, CALU6 cell line
  IC50: 14.9 nM
Caov-3, CAOV3 cell line
  EC50: 5.25 nM
  IC50: 6.47 nM
Capan-2, 168 h, CAPAN2, pancreas, ductal carcinoma, 168 hours
  IC50: > 10000 nM
DLD-1, DLD1 cell line
  EC50: 1.47 nM
  IC50: 2.53 nM
DMS-53, 168 h, DMS53, lung, small cell carcinoma, 168 hours
  IC50: > 10000 nM
DMS-79, DMS79 cell line
  EC50: 1.28 nM
  IC50: 3.47 nM
DMS-153, DMS153 cell line
  IC50: > 10000 nM
DMS-273, DMS273 cell line
  EC50: 16.3 nM
  IC50: 22.2 nM
DU-145, DU145 cell line
  EC50: 16.6 nM
  IC50: 17.7 nM
DV-90, DV90 cell line
  EC50: 5.36 nM
  IC50: 7.36 nM
Daoy, 168 h, central nervous system, NS
  IC50: > 10000 nM
Daudi, DAUDI cell line
  EC50: 13.4 nM
  IC50: 14.9 nM
[1]
  EC50: 10.4 nM
  IC50: 16.7 nM
FTC-133, FTC133 cell line
  EC50: 4.28 nM
  IC50: 7.49 nM
G-361, 168 h, G361, skin, NS, 168 hours
  IC50: > 10000 nM
G-401, G401 cell line
  EC50: 4.39 nM
  IC50: 4.45 nM
GI-1, GI1 cell line
  EC50: 295 nM
  IC50: 287 nM
[2]
  EC50: 14.9 nM
  IC50: 17.6 nM
HCC38, 168 h, HCC38, breast, ductal carcinoma, 168 hours
  IC50: > 10000 nM
HCC70, HCC70 cell line
  EC50: 8.56 nM
  IC50: 11 nM
HCC78, HCC78 cell line
  EC50: 12.7 nM
  IC50: 23.9 nM
HCC95, HCC95 cell line
  EC50: 3.34 nM
  IC50: 4.4 nM
HCC827, 168 h, HCC827, lung, adenocarcinoma, 168 hours
  IC50: > 10000 nM
HCC1143, HCC1143 cell line
  IC50: > 10000 nM
HCC1187, HCC1187 cell line
  EC50: 3.1 nM
  IC50: 6.51 nM
HCC1419, 168 h, HCC1419, breast, ductal carcinoma, 168 hours
  IC50: > 10000 nM
HCC1428, 168 h, HCC1428, breast, NS, 168 hours
  IC50: > 10000 nM
HCC1599, HCC1599 cell line
  EC50: 3.82 nM
  IC50: 5.64 nM
HCC1806, HCC1806 cell line
  EC50: 5.13 nM
  IC50: 13 nM
HCC1937, 168 h, HCC1937, breast, ductal carcinoma, 168 hours
  IC50: > 10000 nM
HCC1954, HCC1954 cell line
  IC50: 40.6 nM
HCC2935, HCC2935 cell line
  IC50: > 10000 nM
HCT-15, HCT15 cell line
  EC50: 1.47 nM
  IC50: 1.79 nM
HCT-116, HCT116 cell line
  EC50: 4.99 nM
  IC50: 20.4 nM
HEL, HEL cell line
  EC50: 3.6 nM
  IC50: 11.7 nM
HL-60, HL60 cell line
  EC50: 8.12 nM
  IC50: 9.32 nM
HLE, HLE cell line
  EC50: 10.4 nM
  IC50: 11.3 nM
HMCB, HMCB cell line
  EC50: 0.815 nM
  IC50: 11.1 nM
HPAC, HPAC cell line
  EC50: 2.38 nM
  IC50: 3.93 nM
HSC-2, HSC2 cell line
  EC50: 5.09 nM
  IC50: 7.99 nM
HSC-3, HSC3 cell line
  IC50: 60.3 nM
HSC-4, HSC4 cell line
  EC50: 4.33 nM
  IC50: 6.95 nM
HT55, HT55 cell line
  EC50: 12.7 nM
  IC50: 14.2 nM
HT-29, HT29 cell line
  EC50: 22.8 nM
  IC50: 37 nM
HT-144, 168 h, HT144, skin, NS, 168 hours
  IC50: > 10000 nM
HT-1080, HT1080 cell line
  EC50: 12.8 nM
  IC50: 14.1 nM
HT-1376, HT1376 cell line
  EC50: 17.9 nM
  IC50: 36.3 nM
HepG2, HEPG2 cell line
  EC50: ≥ 10000 nM
  IC50: 52.1 nM
Hs 294T, HS294T cell line
  EC50: 30.7 nM
  IC50: 66.8 nM
Hs 695T, 168 h, HS695T, skin, NS
  IC50: > 10000 nM
Hs-578T, HS578T cell line
  EC50: 6.9 nM
  IC50: 13.9 nM
HuH-1, HUH1 cell line
  EC50: 10.6 nM
  IC50: 11.8 nM
HuTu80, HUTU80 cell line
  EC50: 4.21 nM
  IC50: 4.36 nM
Huh-7, HUH7 cell line
  EC50: 12.9 nM
  IC50: 14 nM
J82, J82 cell line
  IC50: > 10000 nM
JIMT-1, JIMT1 cell line
  EC50: 46.6 nM
  IC50: 61.9 nM
JeKo-1, JEKO1 cell line
  EC50: 2.31 nM
  IC50: 1.8 nM
Jurkat, JURKAT cell line
  EC50: 1.66 nM
  IC50: 1.49 nM
K562, K562 cell line
  EC50: 4.08 nM
  IC50: 4.56 nM
KALS-1, KALS1 cell line
  IC50: > 10000 nM
[3]
  EC50: 5.42 nM
  IC50: 6.53 nM
KATO III, KATOIII cell line
  EC50: 40.4 nM
  IC50: 43.8 nM
KM12, KM12 cell line
  EC50: 6.3 nM
  IC50: 7.34 nM
KMS-11, KMS11 cell line
  EC50: 10.9 nM
  IC50: 12.2 nM
KNS-62, KNS62 cell line
  EC50: 12.4 nM
  IC50: 14.9 nM
KU-19-19, KU1919 cell line
  EC50: 8.77 nM
  IC50: 10.3 nM
